ChEMBL document CHEMBL5036347, “Design of the naphthyl-diarylpyrimidines as potent non-nucleoside reverse transcriptase inhibitors (NNRTIs) via structure-based extension into the entrance channel” (Eur J Med Chem, 2021)
pEC50, pIC50: −log10 of the molar value.

Assays:
[1] = tested on: Human immunodeficiency virus 1; test: Antiviral activity against HIV1 harboring reverse transcriptase E138K mutant infected in human MT4 cells assessed as protection against virus-induced cytopathic effect incubated for 5 days by MTT assay; format: functional, organism-based; settings: Human immunodeficiency virus 1, MT4, 120 h
[2] = Resistance fold, ratio of EC50 for HIV1 harboring reverse transcriptase K103N mutant […] to EC50 for wild type HIV1 […]; format: functional
[3] = Resistance fold, ratio of EC50 for HIV1 harboring reverse transcriptase F227L/V106A double mutant […] to EC50 for wild type HIV1 […]; format: functional
[4] = tested on: Human immunodeficiency virus 1; test: Antiviral activity against HIV1 harboring reverse transcriptase F227L/V106A mutant infected in human MT4 cells assessed as protection against virus-induced cytopathic effect incubated for 5 days by MTT assay; format: functional, organism-based; settings: Human immunodeficiency virus 1, MT4, 120 h
[5] = tested on: Human immunodeficiency virus 1; test: Antiviral activity against HIV1 harboring reverse transcriptase K103N mutant infected in human MT4 cells assessed as protection against virus-induced cytopathic effect incubated for 5 days by MTT assay; format: functional, organism-based; settings: Human immunodeficiency virus 1, MT4, 120 h
[6] = tested on: Human immunodeficiency virus 1; test: Antiviral activity against HIV1 harboring reverse transcriptase Y181C mutant infected in human MT4 cells assessed as protection against virus-induced cytopathic effect incubated for 5 days by MTT assay; format: functional, organism-based; settings: Human immunodeficiency virus 1, MT4, 120 h
[7] = Cytotoxicity against human MT4 cells assessed as reduction in cell viability incubated for 5 days by MTT assay; format: cell-based; settings: human, MT4 cells; time 5 day
[8] = Resistance fold, ratio of EC50 for HIV1 harboring reverse transcriptase Y181C mutant […] to EC50 for wild type HIV1 […]; format: functional
[9] = tested on: Human immunodeficiency virus 1; test: Antiviral activity against HIV1 harboring reverse transcriptase L100I mutant infected in human MT4 cells assessed as protection against virus-induced cytopathic effect incubated for 5 days by MTT assay; format: functional, organism-based; settings: Human immunodeficiency virus 1, MT4, 120 h
[10] = Resistance fold, ratio of EC50 for HIV1 harboring reverse transcriptase E138K mutant […] to EC50 for wild type HIV1 […]; format: functional
[11] = Resistance fold, ratio of EC50 for HIV1 harboring reverse transcriptase K103N/Y181C double mutant […] to EC50 for wild type HIV1 […]; format: functional
[12] = tested on: Human immunodeficiency virus 2; test: Anti-HIV activity against HIV2 ROD infected in human MT4 cells assessed as reduction in virus-induced cytopathic effect incubated for 5 days by MTT assay; format: functional, organism-based; settings: Human immunodeficiency virus 2, ROD, MT4, 120 h
[13] = Selectivity index, ratio of CC50 for cytotoxicity against human MT4 cells to EC50 of Anti-HIV activity against HIV-1 IIIB infected in human MT4; format: toxicity, cell-based; settings: read-out: Selectivity Index
[14] = Resistance fold, ratio of EC50 for HIV1 harboring reverse transcriptase Y188L mutant […] to EC50 for wild type HIV1 […]; format: functional
[15] = tested on: Human immunodeficiency virus 1; test: Antiviral activity against HIV1 harboring reverse transcriptase Y188L mutant infected in human MT4 cells assessed as protection against virus-induced cytopathic effect incubated for 5 days by MTT assay; format: functional, organism-based; settings: Human immunodeficiency virus 1, MT4, 120 h
[16] = Resistance fold, ratio of EC50 for HIV1 harboring reverse transcriptase L100I mutant […] to EC50 for wild type HIV1 […]; format: functional
[17] = tested on: Human immunodeficiency virus 1; test: Anti-HIV activity against HIV-1 IIIB infected in human MT4 cells assessed as reduction in virus-induced cytopathic effect incubated for 5 days by MTT assay; format: functional, organism-based; settings: Human immunodeficiency virus 1, IIIB, MT4, 120 h
[18] = molecular target: Human immunodeficiency virus type 1 reverse transcriptase (Human immunodeficiency virus 1, UniProt Q72547); test: Inhibition of wild type HIV1 reverse transcriptase using oligo(dT)16 as primer measured after 40 mins by picogreen-dye based spectrofluorimetric analysis
[19] = tested on: Human immunodeficiency virus 1; test: Antiviral activity against HIV1 harboring reverse transcriptase K103N/Y181C double mutant infected in human MT4 cells assessed as protection against virus-induced cytopathic effect incubated for 5 days by MTT assay; format: functional, organism-based; settings: Human immunodeficiency virus 1, MT4, 120 h

Compound	pEC50 [1]	Ratio EC50 [2]	Ratio EC50 [3]	pEC50 [4]	pEC50 [5]	pEC50 [6]	CC50 at 120 h [7] [µM]	Ratio EC50 [8]	pEC50 [9]	Ratio EC50 [10]	Ratio EC50 [11]	pEC50 [12]	selectivity ratio [13]	Ratio EC50 [14]	pEC50 [15]	Ratio EC50 [16]	pEC50 [17]	pIC50 [18]	pEC50 [19]
CNc1cc(Oc2c(OC)cc3cc(C#N)ccc3c2OC)nc(Nc2ccc(C#N)cc2)n1	6.60	1	271	4.97	7.34	6.51	239	8	6.29	6	37	4.28	4080	56	5.66	13	7.41	6.62	5.84
CCC(CC)Nc1cc(Oc2c(OC)cc3cc(C#N)ccc3c2OC)nc(Nc2ccc(C#N)cc2)n1	6.57	1	>7862	< 3.00	6.96	5.88	> 125	10	5.23	2	555	< 3.00	> 1930	192	4.61	46	6.89	6.22	4.15
CCCCNc1cc(Oc2c(OC)cc3cc(C#N)ccc3c2OC)nc(Nc2ccc(C#N)cc2)n1	7.19	1	>38461	< 3.00	7.51	–	> 125	–	6.20	2	58	< 3.00	> 9600	119	5.51	24	–	6.77	5.82
CCCC(C)Nc1cc(Oc2c(OC)cc3cc(C#N)ccc3c2OC)nc(Nc2ccc(C#N)cc2)n1 (stereo not given)	6.60	1	>12771	< 3.00	7.19	6.18	> 125	8	5.66	3	112	< 3.00	> 3140	139	4.96	28	7.11	6.40	5.06
CCC(C)Nc1cc(Oc2c(OC)cc3cc(C#N)ccc3c2OC)nc(Nc2ccc(C#N)cc2)n1 (stereo not given)	6.92	9	>22472	< 3.00	6.38	6.37	> 125	10	5.86	3	83	< 3.00	> 5670	89	5.40	31	7.35	6.59	5.43
CCCNc1cc(Oc2c(OC)cc3cc(C#N)ccc3c2OC)nc(Nc2ccc(C#N)cc2)n1	7.34	1	3827	4.19	7.80	6.74	> 125	11	6.33	3	75	< 3.00	> 15700	68	5.94	28	7.77	6.96	5.90
COc1cc2cc(C#N)ccc2c(OC)c1Oc1cc(NCC2CCOCC2)nc(Nc2ccc(C#N)cc2)n1	7.19	2	113	5.61	7.80	7.28	> 125	2	6.82	4	11	< 3.00	> 10700	17	6.43	–	7.66	6.70	6.62
CCCCCNc1cc(Oc2c(OC)cc3cc(C#N)ccc3c2OC)nc(Nc2ccc(C#N)cc2)n1	7.02	1	>23095	< 3.00	7.39	6.30	> 125	12	5.84	2	147	< 3.00	> 5670	1171	4.30	33	7.37	7.70	5.20
COc1cc2cc(C#N)ccc2c(OC)c1Oc1cc(NCCCO)nc(Nc2ccc(C#N)cc2)n1	7.26	1	113	5.79	7.92	6.96	23.5	8	6.51	4	16	5.39	> 1630	31	6.36	–	7.85	6.72	6.64
COc1cc2cc(C#N)ccc2c(OC)c1Oc1cc(NC2CCOCC2)nc(Nc2ccc(C#N)cc2)n1	6.68	1	>25000	< 3.00	7.05	6.05	> 125	23	5.82	3	108	< 3.00	> 5970	65	5.58	–	7.40	6.52	5.36
COc1cc2cc(C#N)ccc2c(OC)c1Oc1cc(NC(C)C)nc(Nc2ccc(C#N)cc2)n1	7.33	19	–	–	6.33	–	> 125	–	–	2	–	< 3.00	> 10400	–	–	–	–	6.85	–
COc1cc2cc(C#N)ccc2c(OC)c1Oc1cc(NC(C)(C)C)nc(Nc2ccc(C#N)cc2)n1	6.74	1	>19231	< 3.00	7.12	6.19	> 125	12	5.72	4	548	< 3.00	> 4830	125	5.19	36	7.28	6.51	4.55
COc1cc2cc(C#N)ccc2c(OC)c1Oc1cc(NCC(C)C)nc(Nc2ccc(C#N)cc2)n1	6.89	3	>28736	< 3.00	6.96	4.36	> 125	1253	3.90	4	>28736	< 3.00	> 7250	383	4.88	3646	7.46	6.60	< 3.00
Nc1ccn([C@@H]2CS[C@H](CO)O2)c(=O)n1 [LAMIVUDINE]	5.07	1	1	5.51	–	5.34	> 20	1	5.67	1	1	–	> 15	0	–	0.4	5.24	–	5.22
